Source: patent publication US4990499A, “Anti-herpes simplex virus activity of 5-alkoxymethyl-2'-deoxycytidimes and their 5-monophosphates” (priority 1989, dated 1991)
One block for each compound: values may come before it.

Key:
Type in all cases: cell-based
[1] = test system: Herpes simplex virus type 1 (HSV-1); test: Antiviral activity against HSV-1, viral plaque reduction (ED50); conditions: FIG. 13; HSV-1 KOS and 76, Vero, 20 PFU
[2] = test system: Herpes simplex virus type 1 (HSV-1); test: as above; conditions: for reversal of antiviral activity of MMdCyd, order of potency: FIGS. 4 to 6
Protocol: (§1) Infected cells were treated with different concentrations of MMdCyd and the concentration required to reduce viral plaque formation by 50%, i.e. ED50, was determined.
(§2) ^a ED50 : Concentration required to reduce viral plaque formatio
Vero cells were infected with the KOS strain of HSV-1. The compound of compounds indicated in Table 2, below, and are shown graphically in FIGS. 1, (H4 dUrd) and 2 (H4 Urd).
^a Antiviral assays were carried out using Vero cells. All compounds
were added immediately after virus infection.
(§3) The antiviral activity of MMdCyd in the presence of H4 dUrd was determined against several strains of HSV-1 and HSV-2.
Vero cells were infected with HSV-1, strain 76 and treated with MMdCyd at different times post virus infection.
The antiviral activity, ^a cyctotoxicity* and antiviral indices of MMdCyd in the presence of H4 dUrd, dGuo and H4 dUrd+dGuo were determined.
^a Antiviral assays were carried out using Vero cells. Compounds were
added immediately after virus infection. Virus HSV1, strains KOS and 76;
KOS, virus input = 50 PFU

[3] = test system: Herpes simplex virus type 2 (HSV-2); test: Antiviral activity against HSV-2, viral plaque reduction (ED50); conditions: HSV-2
Protocol: as §1, §2, §3
^a Antiviral assays were carried out using Vero cells. Virus input 50
^b ED50 : Concentration required to reduce viral plaque formatio

[4] = test system: Deoxynucleoside Triphosphate (dNTP) Pools in Uninfected Vero Cells; test: Deoxynucleoside triphosphate (dNTP) pools in uninfected (mock-infected) Vero cells
Protocol: Vero cells were treated with MMdCyd, H4 dUrd and MMdCyd+H4 dUrd. The cells were then assayed for the presence of deoxynucleoside triphosphates. Untreated Vero cells were also assayed for the presence of deoxynucleoside triphosphates, to provide a control.
^a Cells were mock infected for one hour. Different treatments were
^b Values are means of at least two assays of triplicate cell
(§4) Vero cells and HSV-infected Vero cells were treated with dGUO and dGUO and H4 dUrd. The cells were then assayed for the presence of deoxynucleoside triphosphates. Untreated Vero cells were also assayed for the presence of deoxynucleoside triphophate to provide a control.
Vero cells were treated with N-methyl-MMdCyd. The cells were then assayed for dNTP pools.

[5] = test system: Deoxynucleoside Triphosphate (dNTP) Pools in Vero Cells Infected with Herpes Simplex Virus Type 1; test: Deoxynucleoside triphosphate (dNTP) pools in HSV-1 infected Vero cells; conditions: Table 16, HSV-1 KOS infected Vero, treatment 7 hours, ± S.E.
Protocol: Example 9 was repeated, except that the Vero cells subjected to the treatment had all been infected with HSV-1 KOS strain prior to the treatment.
^a Cells were infected with 10 PFU/cell of HSV1 KOS strain for one
hour. Treatments were given for seven hours.
^a Cells were infected with 10 PFU/cell of HSV1, KOS strain after
^b H4 dUrd in MEM was added immediately after adsorption and
^c H4 dUrd in MEM was added immediately after adsorption and
as §4
^c Cells were infected with 10 PFU/cell of HSV1 strain KOS for one

[6] = Table 16, uninfected Vero, treatment 7 hours, ± S.E.

Structure (SMILES): Nc1ncnc2c1ncn2[C@H]1C[C@H](O)[C@@H](CO)O1 [Deoxyadenosine, reference compound]
effect on antiviral activity of MMdCyd [1]: no effect on antiherpes activity of MMdCyd

EC50 [2]: 535 µM
Structure (SMILES): COCc1cn([C@H]2C[C@H](OC(C)=O)[C@@H](COC(C)=O)O2)c(=O)nc1N [Di-AC-MMdCyd, 5-methoxymethyl-3',5'-diacetyl-2'-deoxycytidine]
potency against HSV-1 relative to parent compound (times lower) ([2]; vs MMdCyd, cell culture): approximately 20 times

Structure (SMILES): O=C1NC(O)CCN1[C@@H]1O[C@H](CO)[C@@H](O)[C@H]1O (stereo partly drawn) [H4 Urd, tetrahydrouridine, reference compound]
potentiation of the activity of MMdCyd (fold) ([2]; H4 Urd with MMdCyd): approximately 2 fold

EC50 [2]: 10 to 14 µM
Structure (SMILES): COCc1cn([C@H]2C[C@H](O)[C@@H](COP(=O)(O)O)O2)c(=O)nc1N [MMdCMP, 5-methoxymethyl-2'-deoxycytidine monophosphate]
antiviral activity ([2]; HSV-1): potent inhibitor of HSV-1

EC50 [2]: > 530 µM
Structure (SMILES): Cc1cn([C@H]2C[C@H](O)[C@@H](CO)O2)c(=O)nc1N [MedCyd, 5-methyl-2'-deoxycytidine, reference compound]
antiviral activity ([2]; up to 128 μg/ml, HSV-1): devoid of activity

EC50 [2]: > 1800 µM
Structure (SMILES): CNc1nc(=O)n([C@H]2C[C@H](O)[C@@H](COP(=O)(O)O)O2)cc1COC [N-Me-MMdCMP, 5-Methoxymethyl-N^4-methyl-2'-deoxycytidine-5'-monophosphate]
antiviral activity ([2]; HSV-1): completely inert | antiviral activity [3]: completely inert

EC50 [2]: > 1800 µM
Structure (SMILES): CNc1nc(=O)n([C@H]2C[C@H](O)[C@@H](CO)O2)cc1COC [N-Me-MMdCyd, 5-methoxymethyl-N4-methyl-2'-deoxycytidine]
antiherpes activity ([2]; summary statement): completely devoid of antiherpes activity | antiviral activity ([2]; up to 1796 μM): devoid of antiviral activity | dATP pool [4, 6]: 32.2 ± 2.5 .rho. moles/10^6 cells | dCTP pool [4, 6]: 17.3 ± 1.32 .rho. moles/10^6 cells | dGTP pool [4, 6]: 36.3 ± 1.67 .rho. moles/10^6 cells | dTTP pool [4, 6]: 38.6 ± 1.22 .rho. moles/10^6 cells | effect on dNTP pools ([4]; Vero cells): did not cause perturbation of dNTP pools to any significant degree | dATP pool [5]: 7.4 ± 0.4 .rho. moles/10^6 cells | dCTP pool [5]: 18 ± 1.08 .rho. moles/10^6 cells | dGTP pool [5]: 58.9 ± 2.22 .rho. moles/10^6 cells | dTTP pool [5]: 419 ± 10.6 .rho. moles/10^6 cells

Structure (SMILES): Nc1ccn([C@H]2C[C@H](O)[C@@H](CO)O2)c(=O)n1 [deoxycytidine, 2'-deoxycytidine, reference compound]
reversal of antiviral activity of MMdCyd, order of potency [2]: deoxythymidine>deoxyuridine>deoxycytidine | effect on dose-response curve of MMdCyd ([2]; equimolar concentrations, FIG. 5): parallel upward shift

Structure (SMILES): Cc1cn([C@H]2C[C@H](O)[C@@H](CO)O2)c(=O)[nH]c1=O [deoxythymidine, 2'-deoxyribosylthymidine (thymidine), reference compound]
reversal of antiviral activity of MMdCyd, order of potency [2]: deoxythymidine>deoxyuridine>deoxycytidine

Structure (SMILES): O=c1ccn([C@H]2C[C@H](O)[C@@H](CO)O2)c(=O)[nH]1 [deoxyuridine, 2'-deoxyuridine, reference compound]
reversal of antiviral activity of MMdCyd, order of potency [2]: deoxythymidine>deoxyuridine>deoxycytidine
